Patent publication US20120178738A1, “DIBENZO [B,F] [1,4]OXAZAPINE COMPOUNDS” (ARYX THERAPEUTICS, INC., priority 2007, published 2012)

Legend:
5-HT2A receptor = biological target: T1, 5-HT2A receptor (Rattus norvegicus, UniProt P14842); test: cell-based; conditions: read-out: 5HT2A (pKb) (converted)
T1 construct: Eight strips of tissue (0.5 cm long) were cut. and were mounted in 10 ml organ baths; tissue Charles River Laboratories; host or cells: rat aorta strips, endothelium removed
Procedure: The rat aorta (approximately 7 cm) was isolated and removed from the animal (male Sprague Dawley rat, Charles River Laboratories, Hollister, Calif.). The endothelium was removed mechanically. Eight strips of tissue (0.5 cm long) were cut. and were mounted in 10 ml organ baths kept at 37° C. with Krebs solution (composition in mM: NaCl (118.2), KCl (4.6), CaCl2 (2.5), MgSO4 (1.2), KH2PO4 (1.2), NaHCO3 (24.8) and dextrose (10.0)) that was constantly aerated with carbogen gas (95% O2/5% CO2) to obtain a pH of 7.4. The tissues were subjected to a resting tension of 2 g (3 times, 15 minutes apart, equilibrated in Krebs solution). The tissues were then washed 15 minutes later. Ten minutes later, the tissues were then exposed to 0.1 μM phenylephrine. At the maximal effect, 1 μM acetylcholine was added to confirm the absence of endothelium and then washed twice, 2 minutes apart.
Contractions were recorded as changes in tension from baseline and expressed as a percentage of the maximum response of the agonist (5-HT) concentration-effect curve. Agonist concentration-response curves were fitted using a nonlinear iterative fitting program (GraphPad Prism) using the relationship of Parker and Waud (Parker, R. B. and Waud, D. R. (1971). Pharmacological estimation of drug-receptor dissociation constants. Statistical evaluation. I. Agonists. J. Pharmacol. Exp. Ther., 177, 1-12). Agonist potency was expressed as EC50 (molar concentration of agonist producing 50% of the maximum response). Concentration-ratios (CRs) were determined from EC50 values in the presence and absence of antagonist and antagonist affinity estimates (pKB and pA2 values) were determined. All data are expressed as mean±s.e. mean.

[1] = biological target: T2, human D2s dopamine receptors (Homo sapiens, UniProt P14416); test: hD2S receptor radioligand binding ([3H]spiperone); conditions: pKi reported on a scale of 1 through 5
T2 construct: expressed in transfected cells; host or cells: Chinese hamster ovary cells (membranes)
T2 sequence (P14416 1-414 isoform P14416-2): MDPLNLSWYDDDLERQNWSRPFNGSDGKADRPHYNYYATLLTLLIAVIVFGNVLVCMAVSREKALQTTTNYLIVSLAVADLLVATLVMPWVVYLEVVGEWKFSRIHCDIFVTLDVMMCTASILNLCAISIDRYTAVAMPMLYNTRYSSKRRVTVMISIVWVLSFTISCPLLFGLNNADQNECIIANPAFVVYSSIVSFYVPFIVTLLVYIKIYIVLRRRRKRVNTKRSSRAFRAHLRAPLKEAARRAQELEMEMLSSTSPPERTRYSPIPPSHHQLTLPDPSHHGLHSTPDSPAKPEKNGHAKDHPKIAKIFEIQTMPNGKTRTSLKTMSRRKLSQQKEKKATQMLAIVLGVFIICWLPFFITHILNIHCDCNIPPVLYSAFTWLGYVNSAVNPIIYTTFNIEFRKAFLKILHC
Procedure: (§1) Consistent with standard competition radioligand binding assays, the methodology was based on displacement of radioligand from tissues (or cell lines) bearing the receptor of interest (Cheng, Y. and Prusoff, W. H. (1973). Biochem. Pharmacol. 22, 3099-3108). The measurements were based on the binding of a single concentration of radiolabeled ligand in the presence of various concentrations of unlabeled ligand.
(§2) Tissues (or cellular plasma membrane fractions) were incubated in the presence of radioligand at equilibrium and in the presence of a range of concentrations of the test compounds (which were non-radiolabeled), and the displaced radioligand was separated from the membranes by filtration. Nonspecific binding was assessed by measuring displacement of the radioligand in the presence of a compound known to block binding of the radioligand to the receptor. Finally, the concentration-response relationship for radioligand displacement (corrected for non-specific binding) was used to assess binding of the test compound to the receptor.

[2] = biological target: T3, human D2L dopamine receptors (Homo sapiens, UniProt P14416); test: hD2L receptor radioligand binding ([3H]spiperone); conditions: pKi reported on a scale of 1 through 5; read-out: D2L (pKi) (converted)
T3 construct: expressed in transfected cells; host or cells: insect Sf9 cells (membranes)
T3 sequence (P14416 whole entry): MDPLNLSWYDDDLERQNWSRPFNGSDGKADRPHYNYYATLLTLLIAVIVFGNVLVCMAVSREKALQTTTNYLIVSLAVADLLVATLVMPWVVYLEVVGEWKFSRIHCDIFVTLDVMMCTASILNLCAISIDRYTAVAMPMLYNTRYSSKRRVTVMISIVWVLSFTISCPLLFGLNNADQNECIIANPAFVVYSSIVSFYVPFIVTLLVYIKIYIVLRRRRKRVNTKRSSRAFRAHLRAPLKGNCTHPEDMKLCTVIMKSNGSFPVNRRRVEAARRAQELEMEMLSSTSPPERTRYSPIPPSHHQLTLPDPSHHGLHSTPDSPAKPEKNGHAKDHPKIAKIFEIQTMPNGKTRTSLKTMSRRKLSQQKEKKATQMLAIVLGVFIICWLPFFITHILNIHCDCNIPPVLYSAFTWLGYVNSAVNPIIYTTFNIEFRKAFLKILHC
Procedure: as §1, §2

human 5HT1A receptors = biological target: T4, human 5HT1A receptors (Homo sapiens, UniProt P08908); test: h5-HT1A receptor radioligand binding ([3H]8OH-DPAT); conditions: pKi reported on a scale of 1 through 5
T4 construct: expressed in transfected cells; host or cells: Chinese hamster ovary cells (membranes)
T4 sequence (P08908 1-422): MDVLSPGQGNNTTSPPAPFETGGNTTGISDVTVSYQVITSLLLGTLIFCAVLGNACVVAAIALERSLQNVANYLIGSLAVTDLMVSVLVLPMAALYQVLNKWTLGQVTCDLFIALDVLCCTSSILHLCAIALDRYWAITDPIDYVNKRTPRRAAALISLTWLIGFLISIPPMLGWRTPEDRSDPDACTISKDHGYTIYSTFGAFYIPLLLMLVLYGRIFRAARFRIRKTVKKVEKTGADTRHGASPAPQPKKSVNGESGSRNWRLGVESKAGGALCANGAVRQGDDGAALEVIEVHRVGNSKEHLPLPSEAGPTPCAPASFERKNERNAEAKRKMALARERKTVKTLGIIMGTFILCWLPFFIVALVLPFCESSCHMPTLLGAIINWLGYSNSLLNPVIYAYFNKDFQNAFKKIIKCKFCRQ
Procedure: as §1, §2

human 5HT2C receptors = biological target: T5, human 5HT2C receptors (Homo sapiens, UniProt P28335); test: h5-HT2C receptor radioligand binding ([3H]Mesulergine); conditions: pKi reported on a scale of 1 through 5
T5 construct: expressed in transfected cells; host or cells: human embryo kidney cells (membranes)
T5 sequence (P28335 33-458): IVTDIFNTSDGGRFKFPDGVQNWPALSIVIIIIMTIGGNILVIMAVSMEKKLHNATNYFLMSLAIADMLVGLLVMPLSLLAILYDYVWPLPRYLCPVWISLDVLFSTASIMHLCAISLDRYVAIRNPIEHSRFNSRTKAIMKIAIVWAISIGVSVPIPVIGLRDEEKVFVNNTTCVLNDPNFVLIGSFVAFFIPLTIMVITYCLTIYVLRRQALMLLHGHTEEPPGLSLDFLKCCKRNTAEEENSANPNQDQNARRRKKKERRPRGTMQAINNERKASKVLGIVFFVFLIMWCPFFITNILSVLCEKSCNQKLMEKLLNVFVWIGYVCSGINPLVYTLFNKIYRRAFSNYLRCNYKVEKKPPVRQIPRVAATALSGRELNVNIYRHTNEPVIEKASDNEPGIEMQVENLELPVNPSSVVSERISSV
Procedure: The measurements were based on the binding of a single concentration of radiolabeled ligand in the presence of various concentrations of unlabeled ligand.
as §2

human M3 receptors = biological target: T6, human M3 receptors (Homo sapiens, UniProt P20309); test: hM3 receptor radioligand binding ([3H]NMS); conditions: pKi reported on a scale of 1 through 5; read-out: M3 (pKi) (converted)
T6 construct: expressed in transfected cells; host or cells: Chinese hamster ovary cells (membranes)
T6 sequence (P20309 whole entry): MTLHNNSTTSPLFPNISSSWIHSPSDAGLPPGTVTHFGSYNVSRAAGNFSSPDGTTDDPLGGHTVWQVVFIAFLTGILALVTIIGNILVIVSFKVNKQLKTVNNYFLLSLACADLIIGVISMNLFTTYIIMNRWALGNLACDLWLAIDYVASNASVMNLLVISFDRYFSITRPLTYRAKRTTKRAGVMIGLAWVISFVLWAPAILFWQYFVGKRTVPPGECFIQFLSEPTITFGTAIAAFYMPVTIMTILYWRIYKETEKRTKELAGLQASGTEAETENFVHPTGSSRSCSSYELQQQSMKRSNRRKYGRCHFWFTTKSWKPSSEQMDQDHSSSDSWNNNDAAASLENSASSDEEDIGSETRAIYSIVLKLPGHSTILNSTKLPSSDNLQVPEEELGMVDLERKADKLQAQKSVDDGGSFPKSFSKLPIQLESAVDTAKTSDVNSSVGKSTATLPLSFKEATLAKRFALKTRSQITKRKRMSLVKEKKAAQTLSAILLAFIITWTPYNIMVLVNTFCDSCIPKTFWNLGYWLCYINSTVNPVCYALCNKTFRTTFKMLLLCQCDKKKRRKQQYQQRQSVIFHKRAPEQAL
Procedure: as §1, §2

human H1 receptors = biological target: T7, human H1 receptors (Homo sapiens, UniProt P35367); test: hH1 receptor radioligand binding ([3H]Pyrilamine); conditions: pKi reported on a scale of 1 through 5
T7 construct: expressed in transfected cells; host or cells: Chinese hamster ovary cells (membranes)
T7 sequence (P35367 whole entry): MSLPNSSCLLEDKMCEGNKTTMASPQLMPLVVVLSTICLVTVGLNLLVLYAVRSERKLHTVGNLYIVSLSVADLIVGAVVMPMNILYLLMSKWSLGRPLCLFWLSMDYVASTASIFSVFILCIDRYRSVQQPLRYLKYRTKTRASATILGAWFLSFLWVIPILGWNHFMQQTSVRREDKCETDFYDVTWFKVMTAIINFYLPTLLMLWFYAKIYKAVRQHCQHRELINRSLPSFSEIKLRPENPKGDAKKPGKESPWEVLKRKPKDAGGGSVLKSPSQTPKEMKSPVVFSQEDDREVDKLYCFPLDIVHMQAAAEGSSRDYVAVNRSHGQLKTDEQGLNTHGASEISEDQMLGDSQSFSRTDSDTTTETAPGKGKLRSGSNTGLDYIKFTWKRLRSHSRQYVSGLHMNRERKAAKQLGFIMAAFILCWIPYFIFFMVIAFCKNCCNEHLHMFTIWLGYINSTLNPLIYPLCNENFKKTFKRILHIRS
Procedure: as §1, §2

human 5HT7 receptors = biological target: T8, human 5HT7 receptors (Homo sapiens, UniProt P34969); test: h5-HT7 receptor radioligand binding ([3H]5-CT); conditions: pKi reported on a scale of 1 through 5; read-out: 5HT7 (pKi) (converted)
T8 construct: expressed in transfected cells; host or cells: Chinese hamster ovary cells (membranes)
T8 sequence (P34969 whole entry): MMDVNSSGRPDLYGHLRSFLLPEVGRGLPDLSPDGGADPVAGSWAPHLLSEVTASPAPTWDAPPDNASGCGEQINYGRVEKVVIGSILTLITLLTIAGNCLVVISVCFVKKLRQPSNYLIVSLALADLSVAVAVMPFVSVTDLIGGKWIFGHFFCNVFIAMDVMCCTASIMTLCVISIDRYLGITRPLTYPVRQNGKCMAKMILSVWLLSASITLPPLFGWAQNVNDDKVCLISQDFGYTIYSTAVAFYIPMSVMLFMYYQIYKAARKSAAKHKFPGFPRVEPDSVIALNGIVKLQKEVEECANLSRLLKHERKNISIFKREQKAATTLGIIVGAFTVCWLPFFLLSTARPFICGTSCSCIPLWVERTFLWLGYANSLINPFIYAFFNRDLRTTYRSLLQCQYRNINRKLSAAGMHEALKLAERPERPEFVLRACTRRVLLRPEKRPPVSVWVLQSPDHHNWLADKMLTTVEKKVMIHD
Procedure: as §1, §2

human M1 receptors = biological target: T9, human M1 receptors (Homo sapiens, UniProt P11229); test: hM1 receptor radioligand binding ([3H]NMS); conditions: pKi reported on a scale of 1 through 5
T9 construct: expressed in transfected cells; host or cells: Chinese hamster ovary cells (membranes)
T9 sequence (P11229 1-460): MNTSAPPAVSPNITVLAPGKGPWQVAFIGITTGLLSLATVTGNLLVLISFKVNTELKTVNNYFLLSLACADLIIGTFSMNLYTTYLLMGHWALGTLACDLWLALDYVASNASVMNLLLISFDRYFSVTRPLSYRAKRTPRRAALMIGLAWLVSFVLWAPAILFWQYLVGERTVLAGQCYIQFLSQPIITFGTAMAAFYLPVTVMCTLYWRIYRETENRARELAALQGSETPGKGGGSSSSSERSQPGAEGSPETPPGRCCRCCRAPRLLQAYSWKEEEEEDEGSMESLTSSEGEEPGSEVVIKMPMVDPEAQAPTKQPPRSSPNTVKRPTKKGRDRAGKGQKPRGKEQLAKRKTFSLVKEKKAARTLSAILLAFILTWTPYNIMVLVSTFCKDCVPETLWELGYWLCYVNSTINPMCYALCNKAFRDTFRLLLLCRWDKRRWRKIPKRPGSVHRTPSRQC
Procedure: as §1, §2

T1 sequence (P14842 whole entry): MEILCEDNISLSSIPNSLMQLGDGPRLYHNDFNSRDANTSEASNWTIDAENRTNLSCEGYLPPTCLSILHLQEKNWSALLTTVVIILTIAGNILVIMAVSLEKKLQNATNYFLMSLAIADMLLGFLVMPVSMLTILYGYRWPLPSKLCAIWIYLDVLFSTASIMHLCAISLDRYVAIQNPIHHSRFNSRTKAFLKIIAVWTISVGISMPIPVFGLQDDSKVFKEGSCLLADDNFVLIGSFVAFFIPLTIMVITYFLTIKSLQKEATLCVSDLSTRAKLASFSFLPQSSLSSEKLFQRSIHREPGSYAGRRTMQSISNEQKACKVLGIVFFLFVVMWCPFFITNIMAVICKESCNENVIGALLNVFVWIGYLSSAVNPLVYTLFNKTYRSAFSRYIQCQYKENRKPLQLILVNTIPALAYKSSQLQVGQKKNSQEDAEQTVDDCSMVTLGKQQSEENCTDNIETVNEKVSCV

## O=C(C[C@H]1CN(C2=Nc3cc(Cl)ccc3Oc3ccccc32)CCN1)N1CCOCC1 [GG, (S,E)-2-(4-(8-chlorodibenzo[b,f][1,4]oxazepin-11-yl)piperazin-2-yl)-1-morpholinoethanone]
5-HT2A receptor
  Kb: 0.00316 to 0.00977 µM
[1]
  Ki: 2.51 to 9.77 µM
[2]
  Ki: 2.51 to 9.77 µM
Human 5HT1A receptors
  Ki: 0.01 to 0.0977 µM
Human 5HT2C receptors
  Ki: 0.01 to 0.0977 µM
Human M3 receptors
  Ki: 7.94 to 9.77 µM
Human H1 receptors
  Ki: ≤ 0.00977 µM
Human 5HT7 receptors
  Ki: 0.631 to 1.55 µM
Human M1 receptors
  Ki: 1.26 to 2.45 µM

## O=C(C[C@H]1CN(C2=Nc3cc(Cl)ccc3Oc3ccccc32)CCN1)NCC(F)F [FQ, (S,E)-2-(4-(8-chlorodibenzo[b,f][1,4]oxazepin-11-yl)piperazin-2-yl)-N-(2,2-difluoroethyl)acetamide]
5-HT2A receptor
  Kb: 0.01 to 0.0309 µM
[1]
  Ki: 0.631 to 2.45 µM
[2]
  Ki: 0.631 to 2.45 µM
Human 5HT1A receptors
  Ki: 0.01 to 0.0977 µM
Human 5HT2C receptors
  Ki: 0.01 to 0.0977 µM
Human M3 receptors
  Ki: > 10 µM
Human H1 receptors
  Ki: 0.01 to 0.0977 µM
Human 5HT7 receptors
  Ki: 0.631 to 1.55 µM
Human M1 receptors
  Ki: 5.01 to 9.77 µM

## O=C(C[C@H]1CN(C2=Nc3cc(Cl)ccc3Oc3ccccc32)CCN1)NCCOCCO [FN, (S,E)-2-(4-(8-chlorodibenzo[b,f][1,4]oxazepin-11-yl)piperazin-2-yl)-N-(2-(2-hydroxyethoxy)ethyl)acetamide]
5-HT2A receptor
  Kb: 0.00316 to 0.00977 µM
[1]
  Ki: 0.631 to 2.45 µM
[2]
  Ki: 0.631 to 2.45 µM
Human 5HT1A receptors
  Ki: 0.01 to 0.0977 µM
Human 5HT2C receptors
  Ki: 0.01 to 0.0977 µM
Human M3 receptors
  Ki: > 10 µM
Human H1 receptors
  Ki: 0.01 to 0.0977 µM
Human 5HT7 receptors
  Ki: 0.631 to 1.55 µM
Human M1 receptors
  Ki: > 10 µM

## O=C(C[C@H]1CN(C2=Nc3cc(Cl)ccc3Oc3ccccc32)CCN1)N1CCC[C@H]1C(F)(F)F [GH, 2-((S)-4-((E)-8-chlorodibenzo[b,f][1,4]oxazepin-11-yl)piperazin-2-yl)-1-((S)-2-(trifluoromethyl)pyrrolidin-1-yl)ethanone]
5-HT2A receptor
  Kb: 0.0316 to 0.0977 µM
[1]
  Ki: 2.51 to 9.77 µM
[2]
  Ki: 0.631 to 2.45 µM
Human 5HT1A receptors
  Ki: 0.1 to 0.977 µM
Human 5HT2C receptors
  Ki: 0.1 to 0.977 µM
Human M3 receptors
  Ki: 7.94 to 9.77 µM
Human H1 receptors
  Ki: 0.01 to 0.0977 µM
Human 5HT7 receptors
  Ki: 1.58 to 3.89 µM
Human M1 receptors
  Ki: ≤ 1.23 µM

## C[C@H](CC(C)(C)O)OC(=O)C[C@H]1CN(C2=Nc3cc(Cl)ccc3Oc3ccccc32)CCN1 [Compound ED, (R)-4-hydroxy-4-methylpentan-2-yl 2-((S)-4-((E)-8-chlorodibenzo[b,f][1,4]oxazepin-11-yl)piperazin-2-yl)acetate]
5-HT2A receptor
  Kb: 0.00316 to 0.00977 µM
[1]
  Ki: 0.631 to 2.45 µM
[2]
  Ki: 0.631 to 2.45 µM
Human 5HT1A receptors
  Ki: 0.01 to 0.0977 µM
Human 5HT2C receptors
  Ki: < 0.00977 µM
Human M3 receptors
  Ki: > 10 µM
Human H1 receptors
  Ki: 0.01 to 0.0977 µM
Human 5HT7 receptors
  Ki: 0.631 to 1.55 µM
Human M1 receptors
  Ki: 5.01 to 9.77 µM

## CCCN(CCO)C(=O)C[C@H]1CN(C2=Nc3cc(Cl)ccc3Oc3ccccc32)CCN1 [EZ, (S,E)-2-(4-(8-chlorodibenzo[b,f][1,4]oxazepin-11-yl)piperazin-2-yl)-N-(2-hydroxyethyl)-N-propylacetamide]
5-HT2A receptor
  Kb: 0.0316 to 0.0977 µM
[1]
  Ki: 2.51 to 9.77 µM
[2]
  Ki: 2.51 to 9.77 µM
Human 5HT1A receptors
  Ki: ≤ 0.00977 µM
Human 5HT2C receptors
  Ki: 0.01 to 0.0977 µM
Human M3 receptors
  Ki: > 10 µM
Human H1 receptors
  Ki: 0.01 to 0.0977 µM
Human 5HT7 receptors
  Ki: 0.631 to 1.55 µM
Human M1 receptors
  Ki: > 10 µM
